According to US12246079B2, “Bisacurone composition and method of skin whitening” (Vidya Herbs, Inc., priority 2019, dated 2025):

Tested on: B16F10 murine melanoma cells
Assay: Melanin content in α-MSH-stimulated B16F10 cells
Format: cell-based
Conditions: 400 μg, vs α-MSH alone treated B16F10 cells
Description: B16F10 cells (obtained from National Centre for Cell Sciences (NCCS), Pune, India) were cultured in Dulbecco's Modified Eagle's Medium (DMEM; Sigma Aldrich Co, St Louis, USA) with 10% fetal bovine serum (FBS) and penicillin/streptomycin (100 IU.50 Pg ml-1) in a humidified atmosphere of 5% CO2 at 37° C. The cells were cultured in 6-well plates for melanin quantification and enzyme activity assays.
Determination of melanin content of cells was done using a modification of the method of Bilodeau et al (Bilodeau et al 2001). In the present study, the amount of melanin was used as an index of melanogenesis. B16 F10 cells (5×10^4) were transferred to 24-well dishes and incubated in the presence or absence of 100 nM α-MSH. Cells were then incubated for 24 h with different concentration of the composition. After washing twice with PBS, samples were dissolved in 100 μl of 1N NaOH. The samples were then incubated at 60° C. for 1 h and mixed to solubilize the melanin. Absorbance at 405 nm was compared with a standard curve of synthetic melanin.
In order to assess the anti-melanogenesis activity of the composition, the melanin content was measured in both α-MSH-untreated and α-MSH-treated B16F10 cells. The cells were treated with/without α-MSH, followed by treatment with the composition at doses of 100, 200 and 400 μg/Ml (FIG. 4A).

Compound: OC[C@H]1O[C@@H](Oc2ccc(O)cc2)[C@H](O)[C@@H](O)[C@@H]1O [arbutin]
- decrease of melanin content: 35.96%
